Measurements as given in patent US10167262B2, “Herbicidal substituted 3-arylpyrazoles” (FMC CORPORATION, priority 2014, dated 2019).
Like-named read-outs stand apart in the source and are kept apart here.

What was measured:
Experiment in all cases: Test C pre-/postemergence greenhouse test, plant response rating 0-100
Type in all cases: in vivo
[1] = system: large (Lg) crabgrass (Digitaria sanguinalis); conditions: Digitaria sanguinalis, pre-emergence, Preemergence
Procedure, shortened: (§1)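 Greenhouse test. Preemergence: seed in loam:sand, sprayed with formulated chemical (solvent + surfactant). Postemergence: 1–4 leaf plants, 2–18 cm, peat-based potting medium. Hold 13–15 d; score visually, 0 (none) to 100 (complete control); dash = not tested.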

[2] = system: morningglory (Ipomoea coccinea); conditions: Ipomoea; for pest or weed control at 62 g/ha: 62 g ai/ha; for pest or weed control at 125 g/ha: 125 g ai/ha; for pest or weed control at 250 g/ha: 250 g ai/ha; for pest or weed control at 500 g/ha: 500 g ai/ha
Procedure, shortened: as §1

[3] = system: pigweed (Amaranthus retroflexus); conditions: Amaranthus retroflexus; for pest or weed control at 62 g/ha: 62 g ai/ha; for pest or weed control at 125 g/ha: 125 g ai/ha; for pest or weed control at 250 g/ha: 250 g ai/ha; for pest or weed control at 500 g/ha: 500 g ai/ha
Procedure, shortened: as §1

soybean (Glycine max) = conditions: Glycine max; for plant injury at 62 g/ha: 62 g ai/ha; for plant injury at 125 g/ha: 125 g ai/ha; for plant injury at 250 g/ha: 250 g ai/ha; for plant injury at 500 g/ha: 500 g ai/ha
Procedure, shortened: as §1

[4] = system: velvetleaf (Abutilon theophrasti); conditions: Abutilon theophrasti; for pest or weed control at 62 g/ha: 62 g ai/ha; for pest or weed control at 125 g/ha: 125 g ai/ha; for pest or weed control at 250 g/ha: 250 g ai/ha; for pest or weed control at 500 g/ha: 500 g ai/ha
Procedure, shortened: as §1

[5] = system: winter wheat (Triticum aestivum); conditions: Triticum aestivum; for plant injury at 62 g/ha: 62 g ai/ha; for plant injury at 125 g/ha: 125 g ai/ha; for plant injury at 250 g/ha: 250 g ai/ha; for plant injury at 500 g/ha: 500 g ai/ha
Procedure, shortened: as §1

[6] = system: yellow nutsedge (Cyperus esculentus); conditions: Cyperus; for pest or weed control at 62 g/ha: 62 g ai/ha; for pest or weed control at 125 g/ha: 125 g ai/ha; for pest or weed control at 250 g/ha: 250 g ai/ha; for pest or weed control at 500 g/ha: 500 g ai/ha
Procedure, shortened: as §1

[7] = post-emergence, Postemergence, read-out: Plant response rating (0 to 100), Morningglory
[8] = post-emergence, Postemergence, scale 0 to 100
[9] = pre-emergence, Preemergence, read-out: Plant response rating, Morningglory
[10] = post-emergence, Postemergence, read-out: Plant response rating (0 to 100), Pigweed
[11] = pre-emergence, Preemergence, read-out: Plant response rating, Pigweed
[12] = post-emergence, Postemergence, read-out: Plant response rating (0 to 100), Soybean
[13] = pre-emergence, Preemergence, read-out: Plant response rating, Soybean
[14] = post-emergence, Postemergence, read-out: Plant response rating (0 to 100), Velvetleaf
[15] = pre-emergence, Preemergence, read-out: Plant response rating, Velvetleaf
[16] = post-emergence, Postemergence, read-out: Plant response rating (0 to 100), Wheat
[17] = pre-emergence, Preemergence, read-out: Plant response rating, Wheat
[18] = post-emergence, Postemergence, read-out: Plant response rating (0 to 100), Nutsedge, Yellow
[19] = pre-emergence, Preemergence, read-out: Plant response rating, Nutsedge, Yellow

COC(OC)(c1ccccc1)c1c[nH]nc1-c1cc(Cl)cc(Cl)c1 [Compound 13, 3-(3,5-dichlorophenyl)-4-(dimethoxyphenylmethyl)-1H-pyrazole]
pest or weed control at 62 g/ha ([1]; 62 g ai/ha, read-out: Plant response rating, Crabgrass, Large): 0%
pest or weed control at 125 g/ha ([1]; 125 g ai/ha, read-out: Plant response rating, Crabgrass, Large): 0%
pest or weed control at 250 g/ha ([1]; 250 g ai/ha): 0%
pest or weed control at 500 g/ha ([1]; 500 g ai/ha): 0%
pest or weed control at 62 g/ha [2, 7]: 0%
pest or weed control at 125 g/ha [2, 7]: 0%
pest or weed control at 250 g/ha [2, 8]: 10%
pest or weed control at 500 g/ha [2, 8]: 10%
pest or weed control at 62 g/ha [2, 9]: 0%
pest or weed control at 125 g/ha [2, 9]: 0%
pest or weed control at 250 g/ha ([2]; pre-emergence, Preemergence): 0%
pest or weed control at 500 g/ha ([2]; pre-emergence, Preemergence): 0%
pest or weed control at 62 g/ha [3, 10]: 75%
pest or weed control at 125 g/ha [3, 10]: 100%
pest or weed control at 250 g/ha [3, 8]: 100%
pest or weed control at 500 g/ha [3, 8]: 100%
pest or weed control at 62 g/ha [3, 11]: 90%
pest or weed control at 125 g/ha [3, 11]: 100%
pest or weed control at 250 g/ha ([3]; pre-emergence, Preemergence): 100%
pest or weed control at 500 g/ha ([3]; pre-emergence, Preemergence): 100%
plant injury at 62 g/ha (soybean (Glycine max); [12]): 0%
plant injury at 125 g/ha (soybean (Glycine max); [12]): 0%
plant injury at 250 g/ha (soybean (Glycine max); [8]): 0%
plant injury at 500 g/ha (soybean (Glycine max); [8]): 10%
plant injury at 62 g/ha (soybean (Glycine max); [13]): 0%
plant injury at 125 g/ha (soybean (Glycine max); [13]): 0%
plant injury at 250 g/ha (soybean (Glycine max); pre-emergence, Preemergence): 75%
plant injury at 500 g/ha (soybean (Glycine max); pre-emergence, Preemergence): 60%
pest or weed control at 62 g/ha [4, 14]: 70%
pest or weed control at 125 g/ha [4, 14]: 75%
pest or weed control at 250 g/ha [4, 8]: 85%
pest or weed control at 500 g/ha [4, 8]: 80%
pest or weed control at 62 g/ha [4, 15]: 60%
pest or weed control at 125 g/ha [4, 15]: 85%
pest or weed control at 250 g/ha ([4]; pre-emergence, Preemergence): 75%
pest or weed control at 500 g/ha ([4]; pre-emergence, Preemergence): 100%
plant injury at 62 g/ha [5, 16]: 0%
plant injury at 125 g/ha [5, 16]: 0%
plant injury at 250 g/ha [5, 8]: 0%
plant injury at 500 g/ha [5, 8]: 0%
plant injury at 62 g/ha [5, 17]: 0%
plant injury at 125 g/ha [5, 17]: 0%
plant injury at 250 g/ha ([5]; pre-emergence, Preemergence): 0%
plant injury at 500 g/ha ([5]; pre-emergence, Preemergence): 0%
pest or weed control at 62 g/ha [6, 18]: 0%
pest or weed control at 125 g/ha [6, 18]: 0%
pest or weed control at 250 g/ha [6, 8]: 0%
pest or weed control at 500 g/ha [6, 8]: 0%
pest or weed control at 62 g/ha [6, 19]: 0%
pest or weed control at 125 g/ha [6, 19]: 0%
pest or weed control at 250 g/ha ([6]; pre-emergence, Preemergence): 0%
pest or weed control at 500 g/ha ([6]; pre-emergence, Preemergence): 0%
